Key:
[1] = target: LIM domain kinase 2 (Homo sapiens) (UniProt P53671); conditions: Compound concentration 1000.0 nM
[2] = target: Vascular endothelial growth factor receptor 2 (Homo sapiens) (UniProt P35968); conditions: Compound concentration 1000.0 nM
[3] = target: Calcium/calmodulin-dependent protein kinase type 1G (Homo sapiens) (UniProt Q96NX5); conditions: Compound concentration 1000.0 nM
[4] = target: Cyclin-dependent kinase 15 (Homo sapiens) (UniProt Q96Q40); conditions: Compound concentration 1000.0 nM
[5] = target: Bone morphogenetic protein receptor type-1A (Homo sapiens) (UniProt P36894); conditions: Compound concentration 1000.0 nM
[6] = target: Myosin-IIIb (Homo sapiens) (UniProt Q8WXR4); conditions: Compound concentration 1000.0 nM
[7] = target: Calcium/calmodulin-dependent protein kinase kinase 2 (Homo sapiens) (UniProt Q96RR4); conditions: Compound concentration 1000.0 nM
[8] = target: Testis-specific serine/threonine-protein kinase 1 (Homo sapiens) (UniProt Q9BXA7); conditions: Compound concentration 1000.0 nM
Testis-specific serine/threonine-protein kinase 1 (Homo sapiens), sequence (Q9BXA7 whole entry): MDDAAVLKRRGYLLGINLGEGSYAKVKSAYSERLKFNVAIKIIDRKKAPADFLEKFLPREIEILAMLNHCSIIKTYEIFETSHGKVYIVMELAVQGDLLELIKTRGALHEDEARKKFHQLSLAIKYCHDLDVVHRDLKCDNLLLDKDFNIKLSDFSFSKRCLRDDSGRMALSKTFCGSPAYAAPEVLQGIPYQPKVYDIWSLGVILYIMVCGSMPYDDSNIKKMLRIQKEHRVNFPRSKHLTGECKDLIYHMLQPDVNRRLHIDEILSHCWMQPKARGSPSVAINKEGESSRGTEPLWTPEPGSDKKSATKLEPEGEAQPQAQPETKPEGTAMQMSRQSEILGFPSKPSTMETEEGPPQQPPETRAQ

[9] = target: Tyrosine-protein kinase Srms (Homo sapiens) (UniProt Q9H3Y6); conditions: Compound concentration 1000.0 nM
[10] = target: Ribosomal protein S6 kinase alpha-1 (Homo sapiens) (UniProt Q15418); conditions: Compound concentration 1000.0 nM
Ribosomal protein S6 kinase alpha-1 (Homo sapiens), sequence (Q15418 whole entry, canonical isoform): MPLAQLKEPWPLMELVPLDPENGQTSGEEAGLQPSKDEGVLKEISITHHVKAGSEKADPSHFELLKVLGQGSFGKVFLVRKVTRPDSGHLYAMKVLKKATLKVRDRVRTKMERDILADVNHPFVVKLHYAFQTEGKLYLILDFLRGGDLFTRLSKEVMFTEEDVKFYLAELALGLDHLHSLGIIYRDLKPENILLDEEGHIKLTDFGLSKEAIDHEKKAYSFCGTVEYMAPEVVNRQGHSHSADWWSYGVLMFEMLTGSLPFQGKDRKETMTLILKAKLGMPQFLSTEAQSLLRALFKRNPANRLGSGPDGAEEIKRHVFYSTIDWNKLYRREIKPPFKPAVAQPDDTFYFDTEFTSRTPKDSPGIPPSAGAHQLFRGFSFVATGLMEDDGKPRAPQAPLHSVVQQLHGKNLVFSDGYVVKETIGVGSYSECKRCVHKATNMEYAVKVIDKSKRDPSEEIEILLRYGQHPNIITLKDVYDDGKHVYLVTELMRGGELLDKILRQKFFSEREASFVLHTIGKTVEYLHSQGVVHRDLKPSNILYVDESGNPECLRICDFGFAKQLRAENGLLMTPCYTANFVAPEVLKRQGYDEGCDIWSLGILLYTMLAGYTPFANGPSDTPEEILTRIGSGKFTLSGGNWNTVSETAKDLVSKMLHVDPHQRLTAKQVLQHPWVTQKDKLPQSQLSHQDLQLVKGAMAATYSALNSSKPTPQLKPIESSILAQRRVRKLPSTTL

[11] = target: Casein kinase I isoform alpha-like (Homo sapiens) (UniProt Q8N752); conditions: Compound concentration 1000.0 nM
[12] = system: Leucine-rich repeat serine/threonine-protein kinase 2 (Homo sapiens), Q5S007 [G2019S]; conditions: Compound concentration 1000.0 nM
[13] = organism: Rattus norvegicus; conditions: Compound concentration 10.0 uM
[14] = target: cAMP-dependent protein kinase catalytic subunit alpha (Homo sapiens) (UniProt P17612); conditions: Compound concentration 1000.0 nM
[15] = system: Tyrosine-protein kinase ABL1 (Homo sapiens), P00519 [H396P]; conditions: Compound concentration 1000.0 nM
[16] = target: AP2-associated protein kinase 1 (Homo sapiens) (UniProt Q2M2I8); conditions: Compound concentration 1000.0 nM
[17] = target: Casein kinase I isoform delta (Homo sapiens) (UniProt P48730); conditions: Compound concentration 1000.0 nM
[18] = target: Tyrosine-protein kinase receptor TYRO3 (Homo sapiens) (UniProt Q06418); conditions: Compound concentration 1000.0 nM
[19] = target: Cyclin-dependent kinase 5 (Homo sapiens) (UniProt Q00535); conditions: Compound concentration 1000.0 nM
[20] = target: Serine/threonine-protein kinase N1 (Homo sapiens) (UniProt Q16512); conditions: Compound concentration 1000.0 nM
[21] = target: Protein-tyrosine kinase 6 (Homo sapiens) (UniProt Q13882); conditions: Compound concentration 1000.0 nM
[22] = target: Macrophage colony-stimulating factor 1 receptor (Homo sapiens) (UniProt P07333); conditions: Compound concentration 1000.0 nM
Macrophage colony-stimulating factor 1 receptor (Homo sapiens), sequence (P07333 whole entry): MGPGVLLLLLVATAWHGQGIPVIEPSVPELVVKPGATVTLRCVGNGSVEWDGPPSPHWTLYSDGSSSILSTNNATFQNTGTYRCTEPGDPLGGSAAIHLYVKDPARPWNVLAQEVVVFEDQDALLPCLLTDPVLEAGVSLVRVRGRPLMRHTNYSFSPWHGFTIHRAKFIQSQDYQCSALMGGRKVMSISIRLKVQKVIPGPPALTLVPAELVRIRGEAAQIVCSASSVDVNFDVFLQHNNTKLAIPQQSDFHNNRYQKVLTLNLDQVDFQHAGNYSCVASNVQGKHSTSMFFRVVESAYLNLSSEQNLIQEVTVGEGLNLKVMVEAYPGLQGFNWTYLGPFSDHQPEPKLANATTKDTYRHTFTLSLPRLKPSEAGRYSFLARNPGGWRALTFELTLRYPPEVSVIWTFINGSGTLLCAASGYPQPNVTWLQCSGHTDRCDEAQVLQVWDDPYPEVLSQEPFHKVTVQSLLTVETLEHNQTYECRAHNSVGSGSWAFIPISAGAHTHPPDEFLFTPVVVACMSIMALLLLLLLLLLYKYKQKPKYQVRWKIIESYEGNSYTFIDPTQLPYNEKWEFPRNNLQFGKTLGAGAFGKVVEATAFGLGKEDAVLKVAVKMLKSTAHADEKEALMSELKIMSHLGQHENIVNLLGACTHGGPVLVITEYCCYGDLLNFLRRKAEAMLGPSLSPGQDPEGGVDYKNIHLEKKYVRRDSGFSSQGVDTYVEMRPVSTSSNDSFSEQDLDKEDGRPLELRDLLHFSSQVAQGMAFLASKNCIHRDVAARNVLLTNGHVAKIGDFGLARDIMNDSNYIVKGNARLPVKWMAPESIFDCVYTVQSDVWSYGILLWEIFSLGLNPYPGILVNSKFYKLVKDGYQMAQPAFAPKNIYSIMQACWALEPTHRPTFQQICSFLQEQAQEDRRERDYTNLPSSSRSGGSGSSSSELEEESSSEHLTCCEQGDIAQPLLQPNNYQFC

[23] = target: Maternal embryonic leucine zipper kinase (Homo sapiens) (UniProt Q14680); conditions: Compound concentration 1000.0 nM
[24] = target: Ribosomal protein S6 kinase alpha-3 (Homo sapiens) (UniProt P51812); conditions: Compound concentration 1000.0 nM
[25] = target: Mitogen-activated protein kinase 12 (Homo sapiens) (UniProt P53778); conditions: Compound concentration 1000.0 nM
[26] = target: Mitogen-activated protein kinase kinase kinase 13 (Homo sapiens) (UniProt O43283); conditions: Compound concentration 1000.0 nM
[27] = target: Cyclin-dependent kinase 2 (Homo sapiens) (UniProt P24941); conditions: Compound concentration 1000.0 nM
[28] = target: MAP kinase-activated protein kinase 5 (Homo sapiens) (UniProt Q8IW41); conditions: Compound concentration 1000.0 nM
MAP kinase-activated protein kinase 5 (Homo sapiens), sequence (Q8IW41 whole entry): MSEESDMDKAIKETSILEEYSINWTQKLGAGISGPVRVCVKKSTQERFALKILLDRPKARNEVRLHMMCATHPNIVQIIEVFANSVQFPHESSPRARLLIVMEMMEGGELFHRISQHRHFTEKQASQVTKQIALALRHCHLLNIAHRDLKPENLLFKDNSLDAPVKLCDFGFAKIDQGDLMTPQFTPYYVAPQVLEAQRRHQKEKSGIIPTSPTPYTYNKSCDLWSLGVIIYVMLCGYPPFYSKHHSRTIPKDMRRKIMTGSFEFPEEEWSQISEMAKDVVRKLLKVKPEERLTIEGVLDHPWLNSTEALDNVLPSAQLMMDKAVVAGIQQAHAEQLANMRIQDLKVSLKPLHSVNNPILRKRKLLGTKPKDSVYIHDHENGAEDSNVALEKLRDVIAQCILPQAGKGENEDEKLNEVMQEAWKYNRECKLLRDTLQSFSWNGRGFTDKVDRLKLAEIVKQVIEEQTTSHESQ

[29] = target: Sigma intracellular receptor 2 (Homo sapiens, UniProt Q5BJF2); conditions: Compound concentration 10.0 uM
Sigma intracellular receptor 2, sequence (Q5BJF2 whole entry): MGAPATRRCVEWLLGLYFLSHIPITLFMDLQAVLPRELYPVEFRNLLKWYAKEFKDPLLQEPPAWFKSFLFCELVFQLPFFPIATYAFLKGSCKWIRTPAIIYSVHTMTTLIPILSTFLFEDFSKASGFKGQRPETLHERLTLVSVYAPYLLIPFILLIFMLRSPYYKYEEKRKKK

[30] = target: MAP kinase-interacting serine/threonine-protein kinase 1 (Homo sapiens) (UniProt Q9BUB5); conditions: Compound concentration 1000.0 nM
[31] = target: Protein kinase C theta type (Homo sapiens) (UniProt Q04759); conditions: Compound concentration 1000.0 nM
[32] = target: Calcium-dependent protein kinase 1 (Plasmodium falciparum) (UniProt P62344); conditions: Compound concentration 1000.0 nM
[33] = target: Mitogen-activated protein kinase 13 (Homo sapiens) (UniProt O15264); conditions: Compound concentration 1000.0 nM
[34] = target: Cyclin-dependent kinase 9 (Homo sapiens) (UniProt P50750); conditions: Compound concentration 1000.0 nM
[35] = target: Tyrosine-protein kinase BTK (Homo sapiens) (UniProt Q06187); conditions: Compound concentration 1000.0 nM
Tyrosine-protein kinase BTK (Homo sapiens), sequence (Q06187 whole entry): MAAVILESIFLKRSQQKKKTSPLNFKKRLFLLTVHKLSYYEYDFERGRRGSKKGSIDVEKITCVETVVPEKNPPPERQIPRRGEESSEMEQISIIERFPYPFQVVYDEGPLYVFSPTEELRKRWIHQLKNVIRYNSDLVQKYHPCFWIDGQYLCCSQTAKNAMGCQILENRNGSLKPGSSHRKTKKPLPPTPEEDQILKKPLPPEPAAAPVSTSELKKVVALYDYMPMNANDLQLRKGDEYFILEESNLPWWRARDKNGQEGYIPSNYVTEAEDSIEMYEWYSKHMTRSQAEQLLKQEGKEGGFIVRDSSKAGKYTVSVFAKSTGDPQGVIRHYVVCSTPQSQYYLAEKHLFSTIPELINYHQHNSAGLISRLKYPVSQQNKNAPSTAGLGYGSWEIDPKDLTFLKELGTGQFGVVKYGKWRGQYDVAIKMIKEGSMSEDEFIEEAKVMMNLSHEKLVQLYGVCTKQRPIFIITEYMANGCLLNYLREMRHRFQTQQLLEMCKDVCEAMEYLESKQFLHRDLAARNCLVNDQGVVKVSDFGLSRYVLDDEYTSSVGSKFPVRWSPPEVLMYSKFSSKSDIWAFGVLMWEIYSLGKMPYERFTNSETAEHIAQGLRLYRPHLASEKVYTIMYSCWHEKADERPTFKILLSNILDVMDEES

[36] = target: Citron Rho-interacting kinase (Homo sapiens) (UniProt O14578); conditions: Compound concentration 1000.0 nM
[37] = target: Hepatocyte growth factor receptor (Homo sapiens) (UniProt P08581); conditions: Compound concentration 1000.0 nM
[38] = target: BMP-2-inducible protein kinase (Homo sapiens) (UniProt Q9NSY1); conditions: Compound concentration 1000.0 nM
[39] = target: Serine/threonine-protein kinase Sgk2 (Homo sapiens) (UniProt Q9HBY8); conditions: Compound concentration 1000.0 nM
[40] = target: Mitogen-activated protein kinase 9 (Homo sapiens) (UniProt P45984); conditions: Compound concentration 1000.0 nM
[41] = target: 5-hydroxytryptamine receptor 1E (Homo sapiens) (UniProt P28566); conditions: Compound concentration 10.0 uM
[42] = target: Serine/threonine-protein kinase Nek5 (Homo sapiens) (UniProt Q6P3R8); conditions: Compound concentration 1000.0 nM
Serine/threonine-protein kinase Nek5 (Homo sapiens), sequence (Q6P3R8 whole entry): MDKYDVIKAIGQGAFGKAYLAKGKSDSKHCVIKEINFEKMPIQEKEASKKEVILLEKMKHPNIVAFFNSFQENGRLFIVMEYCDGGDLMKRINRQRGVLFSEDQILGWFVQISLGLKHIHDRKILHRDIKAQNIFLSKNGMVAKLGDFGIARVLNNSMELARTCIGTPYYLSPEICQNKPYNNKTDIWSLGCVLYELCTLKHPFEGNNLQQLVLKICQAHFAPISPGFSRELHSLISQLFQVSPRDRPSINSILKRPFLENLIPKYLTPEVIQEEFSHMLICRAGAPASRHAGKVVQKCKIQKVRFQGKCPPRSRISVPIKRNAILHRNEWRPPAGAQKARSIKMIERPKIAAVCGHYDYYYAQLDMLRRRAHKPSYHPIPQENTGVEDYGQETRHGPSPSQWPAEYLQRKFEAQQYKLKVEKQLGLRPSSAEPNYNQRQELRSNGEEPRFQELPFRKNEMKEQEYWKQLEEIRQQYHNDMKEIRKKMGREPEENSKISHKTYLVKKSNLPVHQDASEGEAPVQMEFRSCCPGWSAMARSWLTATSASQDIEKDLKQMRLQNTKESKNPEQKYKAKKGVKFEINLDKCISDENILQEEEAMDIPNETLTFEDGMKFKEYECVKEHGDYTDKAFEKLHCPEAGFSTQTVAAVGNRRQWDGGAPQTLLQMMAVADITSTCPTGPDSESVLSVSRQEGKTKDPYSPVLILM

[43] = target: Non-receptor tyrosine-protein kinase TNK1 (Homo sapiens) (UniProt Q13470); conditions: Compound concentration 1000.0 nM
Non-receptor tyrosine-protein kinase TNK1 (Homo sapiens), sequence (Q13470 whole entry): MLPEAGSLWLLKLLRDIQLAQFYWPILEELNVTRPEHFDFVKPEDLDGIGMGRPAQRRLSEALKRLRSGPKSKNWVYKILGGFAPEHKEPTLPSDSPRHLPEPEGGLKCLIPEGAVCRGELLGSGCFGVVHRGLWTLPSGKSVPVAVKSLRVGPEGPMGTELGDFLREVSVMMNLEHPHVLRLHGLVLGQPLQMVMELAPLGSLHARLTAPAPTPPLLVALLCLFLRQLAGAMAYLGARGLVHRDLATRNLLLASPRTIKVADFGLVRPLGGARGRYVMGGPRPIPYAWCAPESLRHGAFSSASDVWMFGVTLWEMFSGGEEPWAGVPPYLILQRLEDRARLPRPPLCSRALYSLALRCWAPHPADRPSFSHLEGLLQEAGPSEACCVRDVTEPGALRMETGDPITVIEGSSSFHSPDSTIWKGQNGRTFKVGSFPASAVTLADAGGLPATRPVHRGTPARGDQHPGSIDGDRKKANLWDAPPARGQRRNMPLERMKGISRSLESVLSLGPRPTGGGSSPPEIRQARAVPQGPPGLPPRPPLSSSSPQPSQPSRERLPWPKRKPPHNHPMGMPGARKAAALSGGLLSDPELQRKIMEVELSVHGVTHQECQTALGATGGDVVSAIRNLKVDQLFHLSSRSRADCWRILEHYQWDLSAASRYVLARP

[44] = target: D(4) dopamine receptor (Homo sapiens) (UniProt P21917); conditions: Compound concentration 10.0 uM
[45] = target: Receptor-interacting serine/threonine-protein kinase 1 (Homo sapiens) (UniProt Q13546); conditions: Compound concentration 1000.0 nM
[46] = target: Activin receptor type-1-like (Homo sapiens) (UniProt P37023); conditions: Compound concentration 1000.0 nM

SMILES: CCC(=O)N[C@@H]1CC[C@H](C(=O)N(C)c2ccc(-c3nc4ccccc4o3)cc2)C1 [BI 99990]
- residual activity [1]: 100%
- residual activity [2]: 77%
- residual activity [3]: 100%
- residual activity [4]: 100%
- residual activity [5]: 96%
- residual activity [6]: 100%
- residual activity [7]: 100%
- residual activity [8]: 76%
- residual activity [9]: 84%
- residual activity [10]: 100%
- residual activity [11]: 100%
- residual activity [12]: 100%
- inhibition [13]: 5.21%
- residual activity [14]: 100%
- residual activity [15]: 92%
- residual activity [16]: 100%
- residual activity [17]: 100%
- residual activity [18]: 82%
- residual activity [19]: 100%
- residual activity [20]: 84%
- residual activity [21]: 90%
- residual activity [22]: 100%
- residual activity [23]: 100%
- residual activity [24]: 91%
- residual activity [25]: 73%
- residual activity [26]: 100%
- residual activity [27]: 100%
- residual activity [28]: 100%
- inhibition [29]: 62.9%
- residual activity [30]: 95%
- residual activity [31]: 76%
- residual activity [32]: 90%
- residual activity [33]: 100%
- residual activity [34]: 100%
- residual activity [35]: 87%
- residual activity [36]: 93%
- residual activity [37]: 100%
- residual activity [38]: 100%
- residual activity [39]: 100%
- residual activity [40]: 98%
- inhibition [41]: -5.68%
- residual activity [42]: 100%
- residual activity [43]: 100%
- inhibition [44]: 16.4%
- residual activity [45]: 100%
- residual activity [46]: 100%

SMILES: CCC(=O)N[C@H]1CC[C@@H](C(=O)N(C)c2ccc(-c3nc4ccccc4o3)cc2)C1 [BI 99179]
- residual activity [1]: 100%
- residual activity [2]: 75%
- residual activity [3]: 100%
- residual activity [4]: 89%
- residual activity [5]: 88%
- residual activity [6]: 98%
- residual activity [7]: 91%
- residual activity [8]: 91%
- residual activity [9]: 89%
- residual activity [10]: 99%
- residual activity [11]: 100%
- residual activity [12]: 100%
- inhibition [13]: 3.17%
- residual activity [14]: 100%
- residual activity [15]: 88%
- residual activity [16]: 100%
- residual activity [17]: 96%
- residual activity [18]: 92%
- residual activity [19]: 87%
- residual activity [20]: 83%
- residual activity [21]: 100%
- residual activity [22]: 56%
- residual activity [23]: 94%
- residual activity [24]: 88%
- residual activity [25]: 67%
- residual activity [26]: 87%
- residual activity [27]: 100%
- residual activity [28]: 73%
- inhibition [29]: 33.6%
- residual activity [30]: 80%
- residual activity [31]: 84%
- residual activity [32]: 83%
- residual activity [33]: 85%
- residual activity [34]: 95%
- residual activity [35]: 77%
- residual activity [36]: 99%
- residual activity [37]: 100%
- residual activity [38]: 91%
- residual activity [39]: 93%
- residual activity [40]: 79%
- inhibition [41]: -3.14%
- residual activity [42]: 100%
- residual activity [43]: 100%
- inhibition [44]: 11.2%
- residual activity [45]: 100%
- residual activity [46]: 77%
